± gives the expanded uncertainty stated by the source.
Assay: mn = molality of the nth substance listed, in mol/kg
Conditions: Liquid, Vibrating tube method

[Ca+2].[Cl-].[Cl-] [calcium chloride] + O
mass density [kg/m3]
Conditions | 283.15 K | 298.12 K | 323.07 K | 348.04 K | 372.99 K | 397.97 K | 422.94 K | 447.94 K | 472.96 K
1050 kPa, m1 = 1 | 1087.02 ± 0.12 | 1082.37 ± 0.12 | 1072.02 ± 0.12 | 1058.99 ± 0.11 | 1043.73 ± 0.11 | 1026.22 ± 0.11 | 1006.8 ± 0.1 | 985.31 ± 0.11 | –
1050 kPa, m1 = 3 | – | 1225.07 ± 0.22 | 1212.47 ± 0.21 | 1198.77 ± 0.2 | 1184.12 ± 0.2 | 1167.99 ± 0.19 | 1150.79 ± 0.19 | 1132.22 ± 0.2 | –
1050 kPa, m1 = 6 | – | 1388 ± 0.36 | 1372.06 ± 0.35 | 1356.18 ± 0.34 | 1340.35 ± 0.33 | 1324.03 ± 0.32 | 1307.39 ± 0.31 | 1290.23 ± 0.31 | –
10020 kPa, m1 = 1 | 1090.65 ± 0.16 | 1085.93 ± 0.16 | 1075.48 ± 0.15 | 1062.51 ± 0.14 | 1047.42 ± 0.13 | 1030.11 ± 0.12 | 1011.09 ± 0.11 | 989.96 ± 0.11 | 966.77 ± 0.14
10020 kPa, m1 = 3 | – | 1228.17 ± 0.31 | 1215.47 ± 0.3 | 1201.83 ± 0.29 | 1187.2 ± 0.27 | 1171.26 ± 0.26 | 1154.33 ± 0.25 | 1135.97 ± 0.23 | 1116.32 ± 0.24
10020 kPa, m1 = 6 | – | 1390.67 ± 0.54 | 1374.67 ± 0.52 | 1358.9 ± 0.5 | 1343.09 ± 0.48 | 1326.81 ± 0.47 | 1310.4 ± 0.45 | 1293.23 ± 0.44 | 1275.65 ± 0.43
19970 kPa, m1 = 1 | 1094.63 ± 0.21 | 1089.7 ± 0.2 | 1079.27 ± 0.19 | 1066.31 ± 0.17 | 1051.39 ± 0.15 | 1034.38 ± 0.13 | 1015.62 ± 0.11 | 995.04 ± 0.11 | 972.43 ± 0.14
19970 kPa, m1 = 3 | – | 1231.3 ± 0.43 | 1218.73 ± 0.41 | 1205.15 ± 0.39 | 1190.58 ± 0.37 | 1174.82 ± 0.35 | 1158.03 ± 0.33 | 1139.99 ± 0.31 | 1120.67 ± 0.29
19970 kPa, m1 = 6 | – | 1393.43 ± 0.74 | 1377.58 ± 0.71 | 1361.82 ± 0.68 | 1346.07 ± 0.66 | 1329.91 ± 0.63 | 1313.54 ± 0.61 | 1296.61 ± 0.59 | 1279.19 ± 0.57
29900 kPa, m1 = 1 | 1098.56 ± 0.26 | 1093.48 ± 0.25 | 1082.99 ± 0.23 | 1070.05 ± 0.2 | 1055.27 ± 0.18 | 1038.38 ± 0.15 | 1020 ± 0.13 | 999.9 ± 0.11 | 977.79 ± 0.15
29900 kPa, m1 = 3 | – | 1234.6 ± 0.55 | 1221.98 ± 0.53 | 1208.41 ± 0.5 | 1193.94 ± 0.47 | 1178.23 ± 0.44 | 1161.68 ± 0.41 | 1143.88 ± 0.38 | 1124.82 ± 0.36
29900 kPa, m1 = 6 | – | 1396.28 ± 0.94 | 1380.48 ± 0.9 | 1364.67 ± 0.87 | 1349.03 ± 0.84 | 1332.86 ± 0.8 | 1316.63 ± 0.77 | 1299.83 ± 0.74 | 1282.53 ± 0.72
39830 kPa, m1 = 1 | 1102.39 ± 0.31 | 1097.27 ± 0.3 | 1086.62 ± 0.28 | 1073.75 ± 0.25 | 1059.05 ± 0.21 | 1042.42 ± 0.18 | 1024.3 ± 0.14 | 1004.57 ± 0.11 | 983.04 ± 0.14
39830 kPa, m1 = 3 | – | 1237.81 ± 0.68 | 1225.08 ± 0.64 | 1211.58 ± 0.61 | 1197.14 ± 0.57 | 1181.65 ± 0.54 | 1165.21 ± 0.5 | 1147.62 ± 0.46 | 1129.01 ± 0.43
39830 kPa, m1 = 6 | – | 1399.14 ± 1.1 | 1383.27 ± 1.1 | 1367.55 ± 1.1 | 1351.92 ± 1 | 1335.87 ± 0.98 | 1319.7 ± 0.94 | 1303.02 ± 0.9 | 1285.96 ± 0.87
49760 kPa, m1 = 1 | 1106.11 ± 0.38 | 1100.95 ± 0.36 | 1090.1 ± 0.33 | 1077.29 ± 0.29 | 1062.77 ± 0.25 | 1046.36 ± 0.21 | 1028.53 ± 0.16 | 1009.07 ± 0.12 | 988.08 ± 0.14
49760 kPa, m1 = 3 | – | 1240.96 ± 0.8 | 1228.11 ± 0.76 | 1214.64 ± 0.72 | 1200.38 ± 0.68 | 1184.96 ± 0.64 | 1168.72 ± 0.59 | 1151.3 ± 0.54 | 1132.99 ± 0.5
49760 kPa, m1 = 6 | – | 1401.93 ± 1.4 | 1385.94 ± 1.3 | 1370.29 ± 1.2 | 1354.76 ± 1.2 | 1338.78 ± 1.1 | 1322.71 ± 1.1 | 1306.09 ± 1.1 | 1289.19 ± 1
59680 kPa, m1 = 1 | 1109.84 ± 0.44 | 1104.52 ± 0.42 | 1093.62 ± 0.38 | 1080.87 ± 0.34 | 1066.34 ± 0.29 | 1050.19 ± 0.24 | 1032.62 ± 0.19 | 1013.53 ± 0.14 | 992.91 ± 0.13
59680 kPa, m1 = 3 | – | 1244 ± 0.93 | 1231.21 ± 0.89 | 1217.8 ± 0.84 | 1203.46 ± 0.79 | 1188.2 ± 0.74 | 1172.12 ± 0.69 | 1154.99 ± 0.63 | 1136.86 ± 0.58
59680 kPa, m1 = 6 | – | 1404.61 ± 1.6 | 1388.68 ± 1.5 | 1373.09 ± 1.4 | 1357.57 ± 1.4 | 1341.67 ± 1.3 | 1325.64 ± 1.3 | 1309.22 ± 1.2 | 1292.45 ± 1.2
68120 kPa, m1 = 1 | 1113.04 ± 0.5 | 1107.46 ± 0.48 | 1096.56 ± 0.43 | 1083.78 ± 0.39 | 1069.39 ± 0.33 | 1053.29 ± 0.27 | 1036 ± 0.21 | 1017.15 ± 0.15 | 996.86 ± 0.12
68120 kPa, m1 = 3 | – | 1246.57 ± 1.1 | 1233.72 ± 1 | 1220.39 ± 0.94 | 1206.1 ± 0.89 | 1190.88 ± 0.83 | 1174.94 ± 0.77 | 1157.94 ± 0.71 | 1140.04 ± 0.65
68120 kPa, m1 = 6 | – | 1406.89 ± 1.7 | 1390.9 ± 1.7 | 1375.4 ± 1.6 | 1359.88 ± 1.6 | 1344 ± 1.5 | 1328.12 ± 1.4 | 1311.73 ± 1.4 | 1295.04 ± 1.3

From the NIST ThermoML archive (doi:10.1021/je2013704)
